“And” between values parts separate entries of the source, which are not always exact repeats. Equal values may be shown once.
Key:
L1210 [1] = experiment: Residual leukemic cell populations after last treatment in L1210 leukemic mice treated with 1333 mg/kg of compound (qd, day 1); assay type: functional, Mus musculus
L1210 [2] = experiment: Residual leukemic cell populations after last treatment in L1210 leukemic mice treated with 2222 mg/kg of compound (qd, day 1); Toxic; assay type: toxicity, organism-based; set-up: dose 2222 mg/kg; settings: mouse, in vivo
L1210 [3] = experiment: Residual leukemic cell populations after last treatment in L1210 leukemic mice treated with 288 mg/kg of compound (qd, day 1); assay type: functional, Mus musculus
L1210 [4] = experiment: Residual leukemic cell populations after last treatment in L1210 leukemic mice treated with 288 mg/kg of compound (qd, day 1-7); assay type: functional, Mus musculus
L1210 [5] = experiment: Residual leukemic cell populations after last treatment in L1210 leukemic mice treated with 3704 mg/kg of compound (qd, day 1); Toxic; assay type: toxicity, organism-based; set-up: dose 3704 mg/kg; settings: mouse, in vivo
L1210 [6] = experiment: Residual leukemic cell populations after last treatment in L1210 leukemic mice treated with 400 mg/kg of compound (qd, day 1); assay type: functional, Mus musculus
L1210 [7] = experiment: Residual leukemic cell populations after last treatment in L1210 leukemic mice treated with 488 mg/kg of compound (qd, day 1-7); Toxic; assay type: toxicity, organism-based; set-up: dose 488 mg/kg; settings: mouse, in vivo
L1210 [8] = experiment: (§1) Residual leukemic cell populations after last treatment in L1210 leukemic mice treated with 800 mg/kg of compound (qd, day 1); assay type: functional, Mus musculus
L1210 [9] = experiment: as §1; assay type: functional, Mus musculus; remark: listed apart in the source
L1210 [10] = experiment: Residual leukemic cell populations after last treatment in L1210 leukemic mice treated with 800 mg/kg of compound (qd, day 1-7); Toxic; assay type: toxicity, organism-based; set-up: dose 800 mg/kg; settings: mouse, in vivo
Mus musculus [11] = experiment: Compound was evaluated for leukemia related splenomegaly in DBA2 mice spleen weight was determined ~ 24 hour after the last treatment at schedule of administration = qd, day 1,3, 5, 7, 9, 11 at a dose 1333 mg/kg; Toxic; assay type: ADME, organism-based; set-up: dose 1333 mg/kg; settings: in vivo
Mus musculus [12] = experiment: Post inoculation life span in L1210 leukemic mice treated with 1333 mg/kg of compound (qd, day 1); assay type: functional
Mus musculus [13] = experiment: Post inoculation life span in L1210 leukemic mice treated with 2222 mg/kg of compound (qd, day 1); Tested in 6 mice; assay type: functional
Mus musculus [14] = experiment: Post inoculation life span in L1210 leukemic mice treated with 288 mg/kg of compound (qd, day 1-7); Tested in 6 mice; assay type: functional
Mus musculus [15] = experiment: Post inoculation life span in L1210 leukemic mice treated with 288 mg/kg of compound (qd, day 1); Tested in 6 mice; assay type: functional
Mus musculus [16] = experiment: Post inoculation life span in L1210 leukemic mice treated with 3704 mg/kg of compound (qd, day 1); Tested in 6 mice; assay type: functional
Mus musculus [17] = experiment: Post inoculation life span in L1210 leukemic mice treated with 480 mg/kg of compound (qd, day 1); Tested in 6 mice; assay type: functional
Mus musculus [18] = experiment: Post inoculation life span in L1210 leukemic mice treated with 480 mg/kg of compound (qd, day 1-7); Tested in 6 mice; assay type: functional
Mus musculus [19] = experiment: Post inoculation life span in L1210 leukemic mice treated with 800 mg/kg of compound (qd, day 1); Tested in 6 mice; assay type: functional
Mus musculus [20] = experiment: Post inoculation life span in L1210 leukemic mice treated with 800 mg/kg of compound (qd, day 1-7); Tested in 6 mice; assay type: functional
Mus musculus [21] = experiment: Compound was evaluated for leukemia related splenomegaly in DBA2 mice spleen weight was determined ~ 24 hour after the last treatment at schedule of administration = qd, day 1,3, 5, 7, 9, 11 at a dose 480 mg/kg; assay type: functional
Mus musculus [22] = experiment: Compound was evaluated for leukemia related splenomegaly in DBA2 mice spleen weight was determined ~ 24 hour after the last treatment at schedule of administration = qd, day 1,3, 5, 7, 9, 11 at a dose 800 mg/kg; Toxic; assay type: ADME, organism-based; set-up: dose 800 mg/kg; settings: in vivo
L1210 [23] = experiment: Residual leukemic cell populations after last treatment in L1210 leukemic mice treated with 480 mg/kg of compound (bid, day 1,3,5,7); assay type: functional, Mus musculus
L1210 [24] = experiment: Residual leukemic cell populations after last treatment in L1210 leukemic mice treated with 480 mg/kg of compound (bid, day 1-7); Toxic; assay type: toxicity, organism-based; set-up: dose 480 mg/kg; settings: mouse, in vivo
L1210 [25] = experiment: (§2) Residual leukemic cell populations after last treatment in L1210 leukemic mice treated with 480 mg/kg of compound (qd, day 1); assay type: functional, Mus musculus
L1210 [26] = experiment: Residual leukemic cell populations after last treatment in L1210 leukemic mice treated with 480 mg/kg of compound (qd, day 1,3,5,7); assay type: functional, Mus musculus
L1210 [27] = experiment: Residual leukemic cell populations after last treatment in L1210 leukemic mice treated with 480 mg/kg of compound (qd, day 1,4,7); assay type: functional, Mus musculus
L1210 [28] = experiment: Residual leukemic cell populations after last treatment in L1210 leukemic mice treated with 480 mg/kg of compound (qid, day 1); Toxic; assay type: toxicity, organism-based; set-up: dose 480 mg/kg; settings: mouse, in vivo
L1210 [29] = experiment: Residual leukemic cell populations after last treatment in L1210 leukemic mice treated with 480 mg/kg of compound (tid, day 1); assay type: functional, Mus musculus
L1210 [30] = experiment: Residual leukemic cell populations after last treatment in L1210 leukemic mice treated with 480 mg/kg of compound (tid, day 1-7); Toxic; assay type: functional, organism-based; set-up: dose 480 mg/kg; settings: Mus musculus
L1210 [31] = experiment: Residual leukemic cell populations after last treatment in L1210 leukemic mice treated with 480 mg/kg of compound (bid, day 1); assay type: functional, Mus musculus
L1210 [32] = experiment: as §2; assay type: functional, Mus musculus; remark: listed apart in the source
L1210 [33] = experiment: Residual leukemic cell populations after last treatment in L1210 leukemic mice treated with 480 mg/kg of compound (tid, day 1,3,5,7); Toxic; assay type: toxicity, organism-based; set-up: dose 480 mg/kg; settings: mouse, in vivo
Mus musculus [34] = experiment: Post inoculation life span in L1210 leukemic mice treated with 480 mg/kg of compound (bid, day 1); assay type: functional
Mus musculus [35] = experiment: Post inoculation life span in L1210 leukemic mice treated with 480 mg/kg of compound (bid, day 1,3,5,7); assay type: functional
Mus musculus [36] = experiment: Post inoculation life span in L1210 leukemic mice treated with 480 mg/kg of compound (bid, day 1-7); assay type: functional
Mus musculus [37] = experiment: (§3) Post inoculation life span in L1210 leukemic mice treated with 480 mg/kg of compound (qd, day 1); assay type: functional
Mus musculus [38] = experiment: Post inoculation life span in L1210 leukemic mice treated with 480 mg/kg of compound (qd, day 1,4,7); assay type: functional
Mus musculus [39] = experiment: (§4) Post inoculation life span in L1210 leukemic mice treated with 480 mg/kg of compound (qd, day 1-7); assay type: functional
Mus musculus [40] = experiment: Post inoculation life span in L1210 leukemic mice treated with 480 mg/kg of compound (tid, day 1); assay type: functional
Mus musculus [41] = experiment: Post inoculation life span in L1210 leukemic mice treated with 480 mg/kg of compound (tid, day 1,3,5,7); assay type: functional
Mus musculus [42] = experiment: Post inoculation life span in L1210 leukemic mice treated with 480 mg/kg of compound (tid, day 1-7); assay type: functional
Mus musculus [43] = experiment: as §3; assay type: functional; remark: listed apart in the source
Mus musculus [44] = experiment: Post inoculation life span in L1210 leukemic mice treated with 480 mg/kg of compound (qd, day 1,3,5,7); assay type: functional
Mus musculus [45] = experiment: as §4; assay type: functional; remark: listed apart in the source
Mus musculus [46] = experiment: Post inoculation life span in L1210 leukemic mice treated with 480 mg/kg of compound (qid, day 1); assay type: functional
Mus musculus [47] = experiment: Compound was evaluated for leukemia related splenomegaly in DBA2 mice spleen weight was determined ~ 24 hour after the last treatment at schedule of administration at qd, day 1,3, 5, 7, 9, 11 at a dose 288 mg/kg; assay type: functional
Mus musculus [48] = experiment: Compound was evaluated for leukemia related splenomegaly in DBA2 mice spleen weight was determined ~ 24 hour after the last treatment at schedule of administration = qd, day 1,3, 5, 7, 9, 11 at a dose 400 mg/kg; assay type: functional
Mus musculus [49] = experiment: Compound was evaluated for leukemia related splenomegaly in DBA2 mice spleen weight was determined ~ 24 hour after the last treatment at schedule of administration at bid, day 1,3, 5, 7, 9, 11 at a dose 288 mg/kg; assay type: functional
Mus musculus [50] = experiment: Compound was evaluated for leukemia related splenomegaly in DBA2 mice spleen weight was determined ~ 24 hour after the last treatment at schedule of administration at bid, day 1,3, 5, 7, 9, 11 at a dose 400 mg/kg; Toxic; assay type: ADME, organism-based; set-up: dose 400 mg/kg; settings: in vivo

CCOC(=N)c1ncn(C2O[C@H](CO)[C@@H](O)[C@H]2O)n1 (stereo not given in full)
Control (L1210 [1]): 1.3% | Control (L1210 [2]): Toxic | Control (L1210 [3]): 1.7% | Control (L1210 [4]): 27% | Control (L1210 [5]): Toxic | Control (L1210 [6]): 1.1% | Control (L1210 [7]): Toxic | Control (L1210 [8]): 0.4% | Control (L1210 [9]): 1.7% | Control (L1210 [10]): Toxic | Spleen weight (Mus musculus [11]): Toxic | T/C (Mus musculus [12]): 149% | T/C (Mus musculus [13]): 92% | T/C (Mus musculus [14]): 144% | T/C (Mus musculus [15]): 114% | T/C (Mus musculus [16]): 48% | T/C (Mus musculus [17]): 149% | T/C (Mus musculus [18]): 134% | T/C (Mus musculus [19]): 159% and 144% | T/C (Mus musculus [20]): 70% | Spleen weight (Mus musculus [21]): 1257 mg | Spleen weight (Mus musculus [22]): Toxic

COC(=N)c1ncn([C@@H]2O[C@H](CO)[C@@H](O)[C@H]2O)n1
Control (L1210 [23]): 12% | Control (L1210 [24]): Toxic | Control (L1210 [25]): 30% and 21% | Control (L1210 [26]): 46% | Control (L1210 [27]): 73% | Control (L1210 [28]): Toxic | Control (L1210 [29]): 0.6% | Control (L1210 [30]): Toxic | Control (L1210 [31]): 9% | Control (L1210 [32]): 32% | Control (L1210 [33]): Toxic | T/C (Mus musculus [34]): 125% | T/C (Mus musculus [35]): 162% | T/C (Mus musculus [36]): 101% | T/C (Mus musculus [37]): 113% and 116% | T/C (Mus musculus [38]): 119% | T/C (Mus musculus [39]): 162% and 97% | T/C (Mus musculus [40]): 153% | T/C (Mus musculus [41]): 76% | T/C (Mus musculus [42]): 61% | T/C (Mus musculus [43]): 114% | T/C (Mus musculus [44]): 121% | T/C (Mus musculus [45]): 142% | T/C (Mus musculus [46]): 60% | Spleen weight (Mus musculus [47]): 599 mg | Spleen weight (Mus musculus [48]): 216 mg | Spleen weight (Mus musculus [49]): 150 mg | Spleen weight (Mus musculus [50]): Toxic

From ChEMBL document CHEMBL1124513, “Synthesis and antitumor activity of ribavirin imidates. A new facile synthesis of ribavirin amidine (1-beta-D-ribofuranosyl-1,2,4-triazole-3-carboxamidine hydrochloride)” (J Med Chem, 1989)
